These results are taken from patent US20130303509A1, “NAMPT INHIBITORS” (AbbVie Inc., priority 2012, published 2013).

The test system of this test is PC3 cells. In words: NAMPT Cell Proliferation Assay. It is filed as cell-based. Conditions: Homo sapiens, PC-3, 120 h, 5 days incubation, cell viability by Cell Titer Glo. In short, it runs like this:
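Seeded at 500 cells/well in RPMI with 10% heat-inactivated FBS and left to attach overnight at 37° C, 5% CO2. Compounds were added as 10-fold dilutions […] for 5 days, then viability was read by CellTiter-Glo. IC50s came from sigmoidal fits of percent inhibition.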

With `O=C(Nc1ccc(S(=O)(=O)C2CCN(C(=O)c3ccc(F)cc3F)CC2)cc1)C1CN(c2cccnn2)C1` [Example 586, N-(4-{[1-(2,4-difluorobenzoyl)piperidin-4-yl]sulfonyl}phenyl)-1-(pyridazin-3-yl)azetidine-3-carboxamide], the IC50 (in general, the concentration at which inhibition is half-maximal) was found to be 107 nM.
For `O=C(Nc1ccc(S(=O)(=O)C2CCN(C(=O)c3ccc(C(F)(F)F)cc3)CC2)cc1)C1CN(c2cccnn2)C1` [Example 587, 1-(pyridazin-3-yl)-N-[4-({1-[4-(trifluoromethyl)benzoyl]piperidin-4-yl}sulfonyl)phenyl]azetidine-3-carboxamide] the value was 81.4 nM; for `O=C(Nc1ccc(S(=O)(=O)C2CCN(C(=O)c3ccc(F)cc3)CC2)cc1)C1CN(c2cccnn2)C1` [Example 588, N-(4-{[1-(4-fluorobenzoyl)piperidin-4-yl]sulfonyl}phenyl)-1-(pyridazin-3-yl)azetidine-3-carboxamide], 113 nM; for `O=C(Nc1ccc(S(=O)(=O)C2CCN(C(=O)c3cccc(F)c3F)CC2)cc1)C1CN(c2cccnn2)C1` [Example 589, N-(4-{[1-(2,3-difluorobenzoyl)piperidin-4-yl]sulfonyl}phenyl)-1-(pyridazin-3-yl)azetidine-3-carboxamide], 97.9 nM.
In turn, `O=C(Nc1ccc(S(=O)(=O)C2CCN(C(=O)c3ccc(Cl)cc3Cl)CC2)cc1)C1CN(c2cccnn2)C1` [Example 590, N-(4-{[1-(2,4-dichlorobenzoyl)piperidin-4-yl]sulfonyl}phenyl)-1-(pyridazin-3-yl)azetidine-3-carboxamide] showed a concentration for half-maximal inhibition (IC50) of 82.2 nM.
For the compound `O=C(Nc1ccc(S(=O)(=O)C2CCN(C(=O)c3cccc4ccccc34)CC2)cc1)C1CN(c2cccnn2)C1` [Example 591, N-(4-{[1-(naphthalen-1-ylcarbonyl)piperidin-4-yl]sulfonyl}phenyl)-1-(pyridazin-3-yl)azetidine-3-carboxamide], it took 93.6 nM to reach half-maximal inhibition (IC50).
`O=C(Nc1ccc(S(=O)(=O)C2CCN(C(=O)C3CC3)CC2)cc1)C1CN(c2cccnn2)C1` [Example 592, N-(4-{[1-(cyclopropylcarbonyl)piperidin-4-yl]sulfonyl}phenyl)-1-(pyridazin-3-yl)azetidine-3-carboxamide]: the IC50 turned out to be 620 nM.
For `O=C(Nc1ccc(S(=O)(=O)C2CCN(C(=O)c3cc(F)cc(F)c3)CC2)cc1)C1CN(c2cccnn2)C1` [Example 593, N-(4-{[1-(3,5-difluorobenzoyl)piperidin-4-yl]sulfonyl}phenyl)-1-(pyridazin-3-yl)azetidine-3-carboxamide] the value was 63.4 nM; for `CC(C)(C)C(=O)N1CCC(S(=O)(=O)c2ccc(NC(=O)C3CN(c4cccnn4)C3)cc2)CC1` [Example 594, N-(4-{[1-(2,2-dimethylpropanoyl)piperidin-4-yl]sulfonyl}phenyl)-1-(pyridazin-3-yl)azetidine-3-carboxamide], 47.8 nM.
For `CC(C)(C)CC(=O)N1CCC(S(=O)(=O)c2ccc(NC(=O)C3CN(c4cccnn4)C3)cc2)CC1` [Example 595, N-(4-{[1-(3,3-dimethylbutanoyl)piperidin-4-yl]sulfonyl}phenyl)-1-(pyridazin-3-yl)azetidine-3-carboxamide] the value was 80.6 nM; for `COc1cccc(C(=O)N2CCC(S(=O)(=O)c3ccc(NC(=O)C4CN(c5cccnn5)C4)cc3)CC2)c1` [Example 596, N-(4-{[1-(3-methoxybenzoyl)piperidin-4-yl]sulfonyl}phenyl)-1-(pyridazin-3-yl)azetidine-3-carboxamide], 84.6 nM.
The figure for `CC(C)CC(=O)N1CCC(S(=O)(=O)c2ccc(NC(=O)C3CN(c4cccnn4)C3)cc2)CC1` [Example 597, N-(4-{[1-(3-methylbutanoyl)piperidin-4-yl]sulfonyl}phenyl)-1-(pyridazin-3-yl)azetidine-3-carboxamide] is 117 nM; for `CC(C)C(=O)N1CCC(S(=O)(=O)c2ccc(NC(=O)C3CN(c4cccnn4)C3)cc2)CC1` [Example 598, N-(4-{[1-(2-methylpropanoyl)piperidin-4-yl]sulfonyl}phenyl)-1-(pyridazin-3-yl)azetidine-3-carboxamide] it is 208 nM; for `O=C(Nc1ccc(S(=O)(=O)C2CCN(C(=O)C3CCCC3)CC2)cc1)C1CN(c2cccnn2)C1` [Example 599, N-(4-{[1-(cyclopentylcarbonyl)piperidin-4-yl]sulfonyl}phenyl)-1-(pyridazin-3-yl)azetidine-3-carboxamide] it is 79.7 nM.
`O=C(Nc1ccc(S(=O)(=O)C2CCN(C(=O)Cc3ccccc3)CC2)cc1)C1CN(c2cccnn2)C1` [Example 600, N-(4-{[1-(phenylacetyl)piperidin-4-yl]sulfonyl}phenyl)-1-(pyridazin-3-yl)azetidine-3-carboxamide]: the concentration for half-maximal inhibition (IC50) was 219 nM.
The figure for `O=C(Nc1ccc(S(=O)(=O)C2CCN(C(=O)C3(c4ccccc4)CC3)CC2)cc1)C1CN(c2cccnn2)C1` [Example 601, N-[4-({1-[(1-phenylcyclopropyl)carbonyl]piperidin-4-yl}sulfonyl)phenyl]-1-(pyridazin-3-yl)azetidine-3-carboxamide] is 96.8 nM; for `CC(C)(N)C(=O)N1CCC(c2ccc(NC(=O)C3CN(c4cccnc4)C3)cc2)CC1` [Example 602, N-{4-[1-(2-methylalanyl)piperidin-4-yl]phenyl}-1-(pyridin-3-yl)azetidine-3-carboxamide] it is 2 nM; for `CC(C)Cn1cc(-c2ccc(C(=O)N[C@@H]3CCN(c4cccnc4)C3)s2)cn1` [Example 603, 5-[1-(2-methylpropyl)-1H-pyrazol-4-yl]-N-[(3R)-1-(pyridin-3-yl)pyrrolidin-3-yl]thiophene-2-carboxamide] it is 576 nM.
`CC(C)Cn1cc(-c2ccc(C(=O)N[C@@H]3CCN(c4ccnnc4)C3)s2)cn1` [Example 604, 5-[1-(2-methylpropyl)-1H-pyrazol-4-yl]-N-[(3R)-1-(pyridazin-4-yl)pyrrolidin-3-yl]thiophene-2-carboxamide] came in with a concentration for half-maximal inhibition (IC50) of 8260 nM. This IC50 is about 14-fold higher than that of the compound before.
The figure for `CC(C)Cn1cc(-c2ccc(C(=O)N[C@@H]3CCN(c4cccnn4)C3)s2)cn1` [Example 605, 5-[1-(2-methylpropyl)-1H-pyrazol-4-yl]N-[(3R)-1-(pyridazin-3-yl)pyrrolidin-3-yl]thiophene-2-carboxamide] is 1400 nM.
For `CC(C)Cn1cc(-c2ccc(C(=O)N[C@H]3CCN(c4cccnn4)C3)s2)cn1` [Example 606, 5-[1-(2-methylpropyl)-1H-pyrazol-4-yl]-N-[(3S)-1-(pyridazin-3-yl)pyrrolidin-3-yl]thiophene-2-carboxamide] the value was 86.7 nM; for `CC(C)Cn1cc(-c2ccc(C(=O)N[C@H]3CCN(c4ccnnc4)C3)s2)cn1` [Example 607, 5-[1-(2-methylpropyl)-1H-pyrazol-4-yl]-N-[(3S)-1-(pyridazin-4-yl)pyrrolidin-3-yl]thiophene-2-carboxamide], 7650 nM; for `CC(C)Cn1cc(-c2ccc(C(=O)N[C@H]3CCN(c4cccnc4)C3)s2)cn1` [Example 608, 5-[1-(2-methylpropyl)-1H-pyrazol-4-yl]-N-[(3S)-1-(pyridin-3-yl)pyrrolidin-3-yl]thiophene-2-carboxamide], 712 nM.
For `CC(C)(C)OC(=O)N1CCN(C(C)(C)C(=O)N2CCC(c3ccc(NC(=O)C4CN(c5cccnc5)C4)cc3)CC2)CC1` [Example 609, tert-butyl 4-(2-methyl-1-oxo-1-{4-[4-({[1-(pyridin-3-yl)azetidin-3-yl]carbonyl}amino)phenyl]piperidin-1-yl}propan-2-yl)piperazine-1-carboxylate] the value was 2.05 nM; for `CC(C)(C(=O)N1CCC(c2ccc(NC(=O)C3CN(c4cccnc4)C3)cc2)CC1)N1CCNCC1` [Example 610, N-(4-{1-[2-methyl-2-(piperazin-1-yl)propanoyl]piperidin-4-yl}phenyl)-1-(pyridin-3-yl)azetidine-3-carboxamide], 7.9 nM; for `O=C(Nc1ccc(S(=O)(=O)C2CCN(C(=O)c3ccccc3Cl)CC2)cc1)C1CN(c2cccnn2)C1` [Example 611, N-(4-{[1-(2-chlorobenzoyl)piperidin-4-yl]sulfonyl}phenyl)-1-(pyridazin-3-yl)azetidine-3-carboxamide], 90 nM.
Turning to `CC(C)CCC(=O)N1CCC(S(=O)(=O)c2ccc(NC(=O)C3CN(c4cccnn4)C3)cc2)CC1` [Example 612, N-(4-{[1-(4-methylpentanoyl)piperidin-4-yl]sulfonyl}phenyl)-1-(pyridazin-3-yl)azetidine-3-carboxamide], 53.6 nM corresponded to half-maximal inhibition (IC50).
As to `O=C(Nc1ccc(S(=O)(=O)C2CCN(C(=O)Cc3ccccc3F)CC2)cc1)C1CN(c2cccnn2)C1` [Example 613, N-[4-({1-[(2-fluorophenyl)acetyl]piperidin-4-yl}sulfonyl)phenyl]-1-(pyridazin-3-yl)azetidine-3-carboxamide], the concentration for half-maximal inhibition (IC50) came to 707 nM.
The compound `CC(C)C(=O)N1CCC(S(=O)(=O)c2ccc(NC(=O)C3CN(c4ccnnc4)C3)cc2)CC1` [Example 614, N-(4-{[1-(2-methylpropanoyl)piperidin-4-yl]sulfonyl}phenyl)-1-(pyridazin-4-yl)azetidine-3-carboxamide] came in with an IC50 of 7660 nM.
The figure for `O=C(Nc1ccc(S(=O)(=O)C2CCN(C(=O)c3ccccc3)CC2)cc1)C1CN(c2ccnnc2)C1` [Example 615, N-{4-[(1-benzoylpiperidin-4-yl)sulfonyl]phenyl}-1-(pyridazin-4-yl)azetidine-3-carboxamide] is 6150 nM.
For `O=C(Nc1ccc(S(=O)(=O)C2CCN(C(=O)c3ccc(F)cc3)CC2)cc1)C1CN(c2ccnnc2)C1` [Example 616, N-(4-{[1-(4-fluorobenzoyl)piperidin-4-yl]sulfonyl}phenyl)-1-(pyridazin-4-yl)azetidine-3-carboxamide], the IC50 was found to be 7290 nM.
The figure for `O=C(Nc1ccc(S(=O)(=O)C2CCN(C(=O)C3CCCC3)CC2)cc1)C1CN(c2ccnnc2)C1` [Example 617, N-(4-{[1-(cyclopentylcarbonyl)piperidin-4-yl]sulfonyl}phenyl)-1-(pyridazin-4-yl)azetidine-3-carboxamide] is 1870 nM.
